According to patent US4364944A, “Cephalosporins” (Dr. Karl Thomae Gesellschaft mit beschrankter Haftung, priority 1980, dated 1982):
In brackets after ≈: the same amount, converted by molar mass.

What was measured:
[1] = tested on: Pseud. Hbg.; assay: Minimum inhibiting concentration, serial dilution test in the microtiter system; format: cell-based, Pseudomonas aeruginosa hamburgensis; details: Pseudomonas aeruginosa, 37° C., 18 to 20 hours
Experimental: (§1) These tests were performed using the serial dilution test in the microtiter system. The effect of the test compound on bacteriostasis was tested in a liquid medium at the following concentrations: 128, 64, 32, 16, 8, 4, 2, 1, 0.5, 0.25, 0.12 and 0.06 μgm/ml. The nutrient medium consisted of 10 gm of peptone, 8 gm of meat extract oxoid, 3 gm of sodium chloride, and 2 gm of sec. sodium phosphate diluted with distilled water to […] (pH 7.2-7.4). The age of the primary cultures was approximately 20 hours. The standardization of the bacteria suspension was effected using a photometer according to the method of Eppendorf (test tube .phi. 14 mm, filter 546 nm), using for comparison a barium sulfate suspension formed by the addition of 3.0 ml of 1% barium chloride solution to 97 ml of 1% sulfuric acid. After standardization, the test microorganisms were further diluted to a concentration of 1:1500, using a sodium chloride solution.
(§2) 16 mgm of the particular test compound were put into a 10 ml measuring flask, and the flask was subsequently filled to the mark with the solvent. The further dilution series was standardized with distilled water or the appropriate solvent.
(§3) The depressions of the microtiter plates were filled with 0.2 ml of nutrient medium. 0.01 ml of the appropriate test compound solution was then added, followed by inoculation with 0.1 ml (1 drop) of the standardized bacteria suspension. The bacteria were incubated at 37° C. for 18 to 20 hours. Control tests using only the solvent were carried out simultaneously.
(§4) The readings were made macroscopically to determine the minimum inhibitory concentration (the lowest still bacteriostatically effective concentration).
(§5) Staphylococcus aureus SG 511, Escherichia coli ATCC 11 775, Pseudomonas aeruginosa hamburgensis and Pseudomonas aeruginosa BC 19, Serratia marcescens ATCC 13 800, Klebsiella pneumoniae ATCC 10031 and BC 6, Proteus mirabilis BC 17, Proteus rettgeri BC 7, Enterobacter Cloaceae ATCC 13047 and E. coli R+TEM (β-lactamase carrier).

[2] = tested on: Prot. rettg.; assay: as above; format: cell-based, Proteus rettgeri; details: Providencia rettgeri, 37° C., 18 to 20 hours
Experimental: as §1, §2, §3, §4, §5

[3] = tested on: Staph. aureus SG 511; assay: as above; format: cell-based; details: Staphylococcus aureus, SG511, 37° C., 18 to 20 hours
Experimental: as §1, §2, §3, §4, §5

[4] = tested on: Prot. mirab. BC 17; assay: as above; format: cell-based; details: Proteus mirabilis, 37° C., 18 to 20 hours
Experimental: as §1, §2, §3, §4, §5

[5] = tested on: Kl. pneum. BC 6; assay: as above; format: cell-based; details: Klebsiella pneumoniae, 37° C., 18 to 20 hours
Experimental: as §1, §2, §3, §4, §5

[6] = tested on: Kl. pneum. ATCC 10031; assay: as above; format: cell-based; details: Klebsiella pneumoniae, ATCC10031, 37° C., 18 to 20 hours
Experimental: as §1, §2, §3, §4, §5

[7] = tested on: E. coli R + TEM; assay: as above; format: cell-based; details: Escherichia coli, read-out: Minimum inhibiting concentration (MIC)
Experimental: as §1, §2, §3, §4, §5

[8] = tested on: Pseud. BC 19; assay: as above; format: cell-based; details: Pseudomonas aeruginosa, 37° C., 18 to 20 hours
Experimental: as §1, §2, §3, §4, §5

[9] = tested on: Serr. marcesc. ATCC 13880; assay: as above; format: cell-based; details: Serratia marcescens, ATCC13880, 37° C., 18 to 20 hours
Experimental: as §1, §2, §3, §4, §5

[10] = tested on: E. coli ATCC 11775; assay: as above; format: cell-based; details: Escherichia coli, ATCC11775, 37° C., 18 to 20 hours
Experimental: as §1, §2, §3, §4, §5

[11] = tested on: Ent. cloac. ATCC 13047; assay: as above; format: cell-based, Enterobacter Cloaceae; details: Enterobacter, ATCC13047, 37° C., 18 to 20 hours
Experimental: as §1, §2, §3, §4, §5

[12] = tested on: E. coli ATCC 11775; assay: In vivo activity against experimental E. coli infection in mice; design: species or system E. coli in female mice of the NMRI strain; details: Escherichia coli, ATCC11775, sc, 168 h; s.c. administration once, 1 hour after i.p. infection; dose at which 50% of the animals survive; 7 days
Experimental: A few compounds of the invention and cefuroxim were tested in vivo against experimental infections in mice. E. coli ATCC 11775 was used as the pathogenic bacteria. An intraperitoneal infection was induced with 0.2 ml of a 5% mucin suspension of the bacteria. This corresponds to approximately 1.4×10^6 E. coli bacteria per mouse. Female mice of the NMRI strain were divided into groups of 10 animals, of which 2 groups remained untreated while the remaining groups were treated with various doses of the particular cephalosporin according to the invention for the purpose of determining the ED50 (dose at which 50% of the animals survive). The treatment was applied once (1 hour after infection). The observation period was 7 days. The results of these tests are shown in Table III below, where the numbering of the compounds again corresponds to that used in Table I.

[13] = tested on: K. pneum. 1082 E; assay: Minimum inhibiting concentration, serial dilution test in the microtiter system; format: cell-based; details: Klebsiella pneumoniae, 37° C., 18 to 20 hours
Experimental: as §1, §2, §3, §4

Row | SMILES | MIC [1] | MIC [2] | MIC [3] | MIC [4] | MIC [5] | MIC [6] | MIC [7] | MIC [8] | MIC [9] | MIC [10] | MIC [11] | ED50 [12] | MIC [13]
1 | CO/N=C(\C(=O)N[C@@H]1C(=O)N2C(C(=O)O)=C(COC(N)=O)CS[C@H]12)c1ccco1 [Cefuroxim, reference compound] | > 128 µg/mL | 2 µg/mL (≈ 4.71 µM) | 1 µg/mL (≈ 2.36 µM) | 0.5 µg/mL (≈ 1.18 µM) | 4 µg/mL (≈ 9.43 µM) | 2 µg/mL (≈ 4.71 µM) | 4 µg/mL (≈ 9.43 µM) | > 128 µg/mL | 8 µg/mL (≈ 18.9 µM) | 8 µg/mL (≈ 18.9 µM) | 32 µg/mL (≈ 75.4 µM) | > 100 mg/kg | 
2 | Cn1nnnc1SCC1=C(C(=O)O)N2C(=O)[C@@H](NC(=O)C(NC(=O)Nc3cnc(NCc4ccco4)nc3O)c3csc(N)n3)[C@H]2SC1 (some centres unmarked) [Compound 1] | 16 µg/mL (≈ 22.4 µM) | 0.06 µg/mL (≈ 0.0838 µM) | 1 µg/mL (≈ 1.4 µM) | 0.01 µg/mL (≈ 0.014 µM) | 0.03 µg/mL (≈ 0.0419 µM) | 0.06 µg/mL (≈ 0.0838 µM) | 0.5 µg/mL (≈ 0.699 µM) | 16 µg/mL (≈ 22.4 µM) | 0.06 µg/mL (≈ 0.0838 µM) | 0.03 µg/mL (≈ 0.0419 µM) | 0.25 µg/mL (≈ 0.349 µM) | 0.8 mg/kg | 16 µg/mL (≈ 22.4 µM)
3 | Cn1nnnc1SCC1=C(C(=O)O)N2C(=O)[C@@H](NC(=O)C(NC(=O)Nc3cnc(NCc4ccc(S(N)(=O)=O)s4)nc3O)c3csc(N)n3)[C@H]2SC1 (some centres unmarked) [Compound 4] | 16 µg/mL (≈ 19.7 µM) | 0.01 µg/mL (≈ 0.0123 µM) | 1 µg/mL (≈ 1.23 µM) | 0.01 µg/mL (≈ 0.0123 µM) | 0.03 µg/mL (≈ 0.037 µM) | 0.03 µg/mL (≈ 0.037 µM) | 0.25 µg/mL (≈ 0.308 µM) | 8 µg/mL (≈ 9.87 µM) | 0.06 µg/mL (≈ 0.074 µM) | 0.01 µg/mL (≈ 0.0123 µM) | 0.06 µg/mL (≈ 0.074 µM) | < 0.5 mg/kg | 8 µg/mL (≈ 9.87 µM)
4 | Nc1nc(C(NC(=O)Nc2cnc(NCc3ccc(S(N)(=O)=O)s3)nc2O)C(=O)N[C@@H]2C(=O)N3C(C(=O)O)=C(CSc4nnnn4CCO)CS[C@H]23)cs1 (some centres unmarked) [Compound 6] | 16 µg/mL (≈ 19 µM) | 0.06 µg/mL (≈ 0.0713 µM) | 1 µg/mL (≈ 1.19 µM) | 0.03 µg/mL (≈ 0.0357 µM) | 0.03 µg/mL (≈ 0.0357 µM) | 0.06 µg/mL (≈ 0.0713 µM) | 0.5 µg/mL (≈ 0.595 µM) | 8 µg/mL (≈ 9.51 µM) | 0.06 µg/mL (≈ 0.0713 µM) | < 0.03 µg/mL | 0.06 µg/mL (≈ 0.0713 µM) | < 0.5 mg/kg | 16 µg/mL (≈ 19 µM)
5 | CO[C@@]1(NC(=O)C(NC(=O)Nc2cnc(NCc3ccc(S(N)(=O)=O)s3)nc2O)c2ccccc2)C(=O)N2C(C(=O)O)=C(CSc3nnnn3C)CS[C@@H]21 (some centres unmarked) [Compound 11] | 16 µg/mL (≈ 19.5 µM) | 0.5 µg/mL (≈ 0.611 µM) | 1 µg/mL (≈ 1.22 µM) | 0.06 µg/mL (≈ 0.0733 µM) | 0.25 µg/mL (≈ 0.305 µM) | 0.25 µg/mL (≈ 0.305 µM) | 0.25 µg/mL (≈ 0.305 µM) | 8 µg/mL (≈ 9.77 µM) | 0.25 µg/mL (≈ 0.305 µM) | 0.12 µg/mL (≈ 0.147 µM) | 0.5 µg/mL (≈ 0.611 µM) | ~5 mg/kg | 0.25 µg/mL (≈ 0.305 µM)
6 | CO[C@@]1(NC(=O)C(NC(=O)Nc2cnc(NCc3ccco3)nc2O)c2ccccc2)C(=O)N2C(C(=O)O)=C(CSc3nnnn3C)CS[C@@H]21 (some centres unmarked) [Compound 14] | 8 µg/mL (≈ 11.1 µM) | 1 µg/mL (≈ 1.38 µM) | 0.5 µg/mL (≈ 0.691 µM) | 0.12 µg/mL (≈ 0.166 µM) | 0.25 µg/mL (≈ 0.345 µM) | 0.25 µg/mL (≈ 0.345 µM) | 0.25 µg/mL (≈ 0.345 µM) | 8 µg/mL (≈ 11.1 µM) | 0.25 µg/mL (≈ 0.345 µM) | 0.12 µg/mL (≈ 0.166 µM) | 1 µg/mL (≈ 1.38 µM) | 2.5 to 5 mg/kg | 0.25 µg/mL (≈ 0.345 µM)
